Results reported in US12077503B2, “Substituted cyclic amides and their use as herbicides” (FMC CORPORATION, priority 2015, dated 2024).

Experiments:
Format in all cases: in vivo
[1] = tested on: redroot pigweed (Amaranthus retroflexus); assay: Test G Post-Emergence Protocol; conditions: Amaranthus retroflexus, post-emergence, 312 h
How it was run: (§1)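 Foliar application was made 8 days after sowing, using an aqueous spray of the active in acetone/water (50:50) with 0.5% Tween 20, at doses of 15.625, 62.5 or 250 g/ha. Injury was assessed 13 days later, where 100 meant the plant was fully damaged.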

[2] = tested on: velvetleaf (Abutilon theophrasti); assay: Test G Post-Emergence Protocol; conditions: Abutilon theophrasti, post-emergence, 312 h
How it was run: as §1

[3] = tested on: giant foxtail (Setaria faberi); assay: Test G Post-Emergence Protocol; conditions: Setaria faberi, post-emergence, 312 h
How it was run: as §1

[4] = tested on: ivy-leaved morning glory (Ipomoea hederacea); assay: Test G Post-Emergence Protocol; conditions: Ipomoea, post-emergence, 312 h
How it was run: as §1

[5] = tested on: corn (Zea mays); assay: Test G Post-Emergence Protocol; conditions: Zea mays, post-emergence, 312 h
How it was run: as §1

[6] = tested on: barnyardgrass (Echinochloa crus-galli); assay: Test G Post-Emergence Protocol; conditions: Echinochloa crus-galli, post-emergence, 312 h
How it was run: as §1

[7] = tested on: redroot pigweed (Amaranthus retroflexus); assay: Test G Pre-Emergence Protocol; conditions: Amaranthus retroflexus, pre-emergence, 312 h, evaluated after 13 days
How it was run: (§2)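 One day after sowing, pots are treated with a spray of test compound formulated in acetone/water 50:50 plus 0.5% Tween 20, giving 15.625, 62.5 or 250 g/ha. Evaluation on a 0–100 damage scale follows 13 days of glasshouse growth.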

[8] = tested on: velvetleaf (Abutilon theophrasti); assay: Test G Pre-Emergence Protocol; conditions: Abutilon theophrasti, pre-emergence, 312 h, evaluated after 13 days
How it was run: as §2

[9] = tested on: giant foxtail (Setaria faberi); assay: Test G Pre-Emergence Protocol; conditions: Setaria faberi, pre-emergence, 312 h, evaluated after 13 days
How it was run: as §2

[10] = tested on: ivy-leaved morning glory (Ipomoea hederacea); assay: Test G Pre-Emergence Protocol; conditions: Ipomoea, pre-emergence, 312 h, evaluated after 13 days
How it was run: as §2

[11] = tested on: corn (Zea mays); assay: Test G Pre-Emergence Protocol; conditions: Zea mays, pre-emergence, 312 h, evaluated after 13 days
How it was run: as §2

[12] = tested on: barnyardgrass (Echinochloa crus-galli); assay: Test G Pre-Emergence Protocol; conditions: Echinochloa crus-galli, pre-emergence, 312 h, evaluated after 13 days
How it was run: as §2

CN1C[C@H](c2ccc(C(F)(F)F)cc2)[C@@H](C(=O)Nc2ccc(C(F)(F)F)c(F)c2F)C1=O (racemic) [Compound 1451]
0%: pest or weed control at 15.625 g/ha ([1]; 15.625 g ai/ha, evaluated after 13 days (100=total damage to plant; 0=no damage to plant), read-out: Pigweed, Redroot damage rating) | pest or weed control at 62.5 g/ha ([1]; 62.5 g ai/ha, evaluated after 13 days, read-out: Pigweed, Redroot damage rating (100=total damage to plant; 0=no damage to plant)) | pest or weed control at 250 g/ha ([1]; 250 g ai/ha, evaluated after 13 days, read-out: damage to plant, Pigweed, Redroot (100=total damage to plant; 0=no damage to plant)) | pest or weed control at 15.625 g/ha ([2]; 15.625 g ai/ha, evaluated after 13 days (100=total damage to plant; 0=no damage to plant), read-out: Velvetleaf damage rating) | pest or weed control at 62.5 g/ha ([2]; 62.5 g ai/ha, evaluated after 13 days, read-out: Velvetleaf damage rating (100=total damage to plant; 0=no damage to plant)) | pest or weed control at 250 g/ha ([2]; 250 g ai/ha, evaluated after 13 days, read-out: damage to plant, Velvetleaf (100=total damage to plant; 0=no damage to plant)) | pest or weed control at 15.625 g/ha ([3]; 15.625 g ai/ha, evaluated after 13 days (100=total damage to plant; 0=no damage to plant), read-out: Foxtail, Giant damage rating) | pest or weed control at 62.5 g/ha ([3]; 62.5 g ai/ha, evaluated after 13 days, read-out: Foxtail, Giant damage rating (100=total damage to plant; 0=no damage to plant)) | pest or weed control at 250 g/ha ([3]; 250 g ai/ha, evaluated after 13 days, read-out: damage to plant, Foxtail, Giant (100=total damage to plant; 0=no damage to plant)) | pest or weed control at 15.625 g/ha ([4]; 15.625 g ai/ha, evaluated after 13 days (100=total damage to plant; 0=no damage to plant), read-out: Morningglory, Ivy-leaved damage rating) | pest or weed control at 62.5 g/ha ([4]; 62.5 g ai/ha, evaluated after 13 days, read-out: Morningglory, Ivy-leaved damage rating (100=total damage to plant; 0=no damage to plant)) | pest or weed control at 250 g/ha ([4]; 250 g ai/ha, evaluated after 13 days, read-out: damage to plant, Morningglory, Ivy-leaved (100=total damage to plant; 0=no damage to plant)) | plant injury at 15.625 g/ha ([5]; 15.625 g ai/ha, evaluated after 13 days (100=total damage to plant; 0=no damage to plant), read-out: Corn damage rating) | plant injury at 62.5 g/ha ([5]; 62.5 g ai/ha, evaluated after 13 days, read-out: Corn damage rating (100=total damage to plant; 0=no damage to plant)) | plant injury at 250 g/ha ([5]; 250 g ai/ha, evaluated after 13 days, read-out: damage to plant, Corn (100=total damage to plant; 0=no damage to plant)) | pest or weed control at 15.625 g/ha ([6]; 15.625 g ai/ha, evaluated after 13 days (100=total damage to plant; 0=no damage to plant), read-out: Barnyardgrass damage rating) | pest or weed control at 62.5 g/ha ([6]; 62.5 g ai/ha, evaluated after 13 days, read-out: Barnyardgrass damage rating (100=total damage to plant; 0=no damage to plant)) | pest or weed control at 250 g/ha ([6]; 250 g ai/ha, evaluated after 13 days, read-out: damage to plant, Barnyardgrass (100=total damage to plant; 0=no damage to plant)) | pest or weed control at 15.625 g/ha ([7]; 15.625 g ai/ha, read-out: Pigweed, Redroot damage rating (100=total damage to plant; 0=no damage to plant)) | pest or weed control at 62.5 g/ha ([7]; 62.5 g ai/ha, 100=total damage to plant, 0=no damage to plant, read-out: plant damage rating, Pigweed, Redroot) | pest or weed control at 250 g/ha ([7]; 250 g ai/ha, read-out: Pigweed, Redroot damage rating (100=total damage to plant; 0=no damage to plant)) | pest or weed control at 15.625 g/ha ([8]; 15.625 g ai/ha, read-out: Velvetleaf damage rating (100=total damage to plant; 0=no damage to plant)) | pest or weed control at 62.5 g/ha ([8]; 62.5 g ai/ha, 100=total damage to plant, 0=no damage to plant, read-out: plant damage rating, Velvetleaf) | pest or weed control at 250 g/ha ([8]; 250 g ai/ha, read-out: Velvetleaf damage rating (100=total damage to plant; 0=no damage to plant)) | pest or weed control at 15.625 g/ha ([9]; 15.625 g ai/ha, read-out: Foxtail, Giant damage rating (100=total damage to plant; 0=no damage to plant)) | pest or weed control at 62.5 g/ha ([9]; 62.5 g ai/ha, 100=total damage to plant, 0=no damage to plant, read-out: plant damage rating, Foxtail, Giant) | pest or weed control at 250 g/ha ([9]; 250 g ai/ha, read-out: Foxtail, Giant damage rating (100=total damage to plant; 0=no damage to plant)) | pest or weed control at 15.625 g/ha ([10]; 15.625 g ai/ha, read-out: Morning-glory, Ivy-leaved damage rating (100=total damage to plant; 0=no damage to plant)) | pest or weed control at 62.5 g/ha ([10]; 62.5 g ai/ha, 100=total damage to plant, 0=no damage to plant, read-out: plant damage rating, Morningglory, Ivy-leaved) | pest or weed control at 250 g/ha ([10]; 250 g ai/ha, read-out: Morningglory, Ivy-leaved damage rating (100=total damage to plant; 0=no damage to plant)) | plant injury at 15.625 g/ha ([11]; 15.625 g ai/ha, read-out: Corn damage rating (100=total damage to plant; 0=no damage to plant)) | plant injury at 62.5 g/ha ([11]; 62.5 g ai/ha, 100=total damage to plant, 0=no damage to plant, read-out: plant damage rating, Corn) | plant injury at 250 g/ha ([11]; 250 g ai/ha, read-out: Corn damage rating (100=total damage to plant; 0=no damage to plant)) | pest or weed control at 15.625 g/ha ([12]; 15.625 g ai/ha, read-out: Barnyard grass damage rating (100=total damage to plant; 0=no damage to plant)) | pest or weed control at 62.5 g/ha ([12]; 62.5 g ai/ha, 100=total damage to plant, 0=no damage to plant, read-out: plant damage rating, Barnyardgrass) | pest or weed control at 250 g/ha ([12]; 250 g ai/ha, read-out: Barnyardgrass damage rating (100=total damage to plant; 0=no damage to plant))
